BindingDB's records for doi:10.1021/jm00105a061 (Zambeletti Research Laboratories, 1991)
Structures can show the parent of a compound that is named as a salt.

How the values were obtained:
[1] = Compound was evaluated for its binding affinity against Opioid receptor delta 1 subtype in guinea pig brain (minus cerebellum) using [3H]DADLE as radioligand.
[2] = Compound was evaluated for its binding affinity against opioid receptor delta subtype in guinea pig brain (minus cerebellum) using [3H]-DADLE as radioligand.

In the case of O=C(Cc1ccc(Cl)c(Cl)c1)N1CCCCC1CN1CCCC1 (stereo not drawn), the Ki [1] is reported as > 10 µM.

For O=C(Cc1ccc(O)cc1)N1CCCCC1CN1CCCC1 (stereo not drawn), the Ki [2] was > 10 µM.

For CN1CCCC1C1CCCCN1C(=O)Cc1ccc(Cl)c(Cl)c1 (stereo not drawn) [(threo)2-(3,4-Dichloro-phenyl)-1-[2-(1-methyl-pyrrolidin-2-yl)-piperidin-1-yl]-ethanone(HCl)], the Ki [2] was > 10 µM.
